What was measured:
SET2 xenografts = assay: In vivo efficacy on SET2 tumor xenografts; conditions: Nude mice; 1.5, 5 and 15 mg/kg p.o. QD; 14 days of dosing
Experimental: FIG. 12 illustrates the in vivo efficacy of GSK2879552 on SET2 xenografts. […] Tumor-bearing animals were treated with 3 different dose levels of the KDM1A inhibitor: 1.5 mg/kg, 5 mg/kg, and 15 mg/kg administered orally (p.o.) on a daily schedule (QD). […] Top right panel indicates body weight changes determined in the treated mice.

KDM1A/CoREST complex [1] = target: T1, KDM1A/CoREST complex (Homo sapiens, UniProt O60341); assay: Anti-KDM1A immunoprecipitation and Western blot in HEL cells; type: cell-based; set-up: endogenous in cells; conditions: overnight at 1 μM
Experimental: For immunoprecipitation, 3 μg of anti-KDM1A antibody (Bethyl Labs, Montgomery, Tex.) or rabbit IgG (Cell Signaling, Danvers, Mass.) were added to 0.5 mg of reconstituted whole cell lysate and placed on a rotator at 4° C. overnight. To isolate the immune complexes, 50 μL of pre-washed Protein G magnetic beads (Dynabeads, Invitrogen) equilibrated in A+C buffer (1:1) were added and the samples were rotated for 4° C. for an additional 2 hours. Beads were captured using a magnetic stand (DynaMag, Invitrogen) and washed 3 times with buffer A+C. The beads were re-suspended in 25 μl 2×SDS loading buffer and resolved on 4-12% SDS-PAGE gels. Co-precipitated proteins were detected by western blotting using the indicated primary antibodies. […] Here, HEL cells were treated with the KDM1A inhibitor RN-1 overnight at 1 μM concentration. Cell lysates were prepared and an immunoprecipitation was carried out using an anti-KDM1A antibody and rabbit IgG as a control. SDS-PAGE and Western blotting was performed on the input material and immunoprecipitated material. Blot was probed with an anti-GFI1B, anti-KDM1A, and anti-vinculin antibodies. Bound antibodies were detected with goat anti-rabbit IgG antibody and goat anti-mouse IgG, conjugated with DyLight 800 AND DyLight 680, respectively.

KDM1A/CoREST complex [2] = target: T1, KDM1A/CoREST complex; assay: Anti-KDM1A immunoprecipitation and Western blot in SET2 cells; type: cell-based; set-up: endogenous in cells; host or cells: SET2 cells
Experimental: […] Cells were harvested, washed twice with cold PBS and resuspended in 5 volumes of Buffer A (10 mM Tris-HCL (pH 8.0), 1.5 mM MgCl2, 10 mM KCl, 0.5 mM DTT, supplemented with protease inhibitors). After 15 minutes on ice, cells were spun down at 1000×g for 15 minutes and the supernatant was removed as the cytosolic fraction. Pellets were resuspended in Buffer C (20 mM Tris-HCl, (pH 7.9), 25% glycerol, 0.42 M NaCl, 1.5 mM MgCl2, 0.2 mM EDTA, 0.5 mM DTT and protease inhibitors) and sonicated briefly (3 seconds, 40% output). After incubating on ice for 30 minutes, cells were spun at 20,000×g for 20 minutes to pellet the insoluble material. The supernatant was removed (soluble nuclear fraction) and combined with the cytosolic fraction to reconstitute a whole cell lysate with a final NaCl concentration of <200 mM. […] Co-precipitated proteins were detected by western blotting using the indicated primary antibodies. […] Bound antibodies were detected with goat anti-rabbit IgG antibody and goat anti-mouse IgG, conjugated with DyLight 800 AND DyLight 680, respectively. […]

SMILES: O=C(O)c1ccc(CN2CCC(CN[C@@H]3C[C@H]3c3ccccc3)CC2)cc1 [GSK2879552]
- Growth of SET-2 tumor xenografts (tumor size) (SET2 xenografts): reduced the growth of SET-2 tumor xenografts

SMILES: CN1CCN(C(=O)CN[C@@H]2CC2c2ccc(OCc3ccccc3)cc2)CC1 (stereo partly shown) [RN-1]
- GFI1B association with the KDM1A/CoREST complex (co-immunoprecipitation) (KDM1A/CoREST complex [1]): displacement of GFI1B from the KDM1A/CoREST complex
- GFI1B association with the KDM1A/CoREST complex (co-immunoprecipitation) (KDM1A/CoREST complex [2]; SET2 cells, 1 μM RN-1 for 24 hours, vs DMSO): displacement of GFI1B from the KDM1A/CoREST complex
- CoREST retention in the KDM1A complex (co-immunoprecipitation) (KDM1A/CoREST complex [2]; SET-2 cells, overnight at 1 μM): CoREST is retained in the KDM1A complex

— patent publication US20200069677A1, “MARKERS FOR PERSONALIZED CANCER TREATMENT WITH LSD1 INHIBITORS” (Constellation Pharmaceuticals, Inc., priority 2016, published 2020)
